Measured values published in patent US20240309004A1, “SELECTIVE CYCLIN-DEPENDENT KINASE INHIBITORS AND METHODS OF THERAPEUTIC USE THEREOF” (ViroKyne Therapeutics, LLC, priority 2021, published 2024).
Where two headings read alike, the source gives them in different places.

Assays:
HCMV strain AD169 = experiment: HCMV primary assay (CPE), strain AD169, HFF cells; format: cell-based, Human Cytomegalovirus
Protocol: The antiviral activity of the compound against HCMV in the described Primary assay was measured by treating primary Human foreskin fibroblast (HFF) cells infected with HCMV with a range of compound concentrations—description of methods for this assay can be found in section 1.3.2.1. […] . Additional tested assay parameters in this Primary assay can be found in Table 3.2.1 and include EC90, S150, and S190 values—descriptions of those data points can be found in section 3.2.1.

[1] = Cytotoxicity concurrent with HCMV AD169 primary assay; format: cell-based, human; conditions: human
[2] = Cytotoxicity concurrent with HSV1 E-377 primary assay; format: cell-based; conditions: human
Protocol: (§1) Assays were performed in monolayers as described. […] Toxicity was measured using CTG as above. […] Toxicity was measured using CTG as above.

VZV strain Ellen = experiment: VZV primary assay, strain Ellen, HFF cells; format: cell-based, Varicella Zoster Virus
Protocol: as §1
(§2) Monolayers of HFF cells were prepared in six-well plates and incubated at 37° C. for 2 d to allow the cells to reach confluency. Media was then aspirated from the wells and 0.2 mL of virus-containing solution was added to each of three wells to yield 20-30 plaques in each well. The virus was allowed to adsorb to the cells for 1 h and the plates were agitated every 15 minutes. Compounds were diluted in assay media consisting of MEM with Earl's salts supplemented with 2% FBS, glutamine, penicillin, and gentamycin. Diluted drug was added to duplicate wells and the plates were incubated for various times, depending on the virus used. For HSV-1 and -2, the monolayers were then stained with 1% crystal violet in 20% methanol and the unbound dye removed by washing with dH20. For all other assays, the cell monolayer was stained with 1% Neutral Red solution for 4-6 h then the stain was aspirated and the cells were washed with PBS.

[3] = tested on: Adenovirus Adenoid75 strain; experiment: Adenovirus primary assay, Adenoid75 strain, HFF cells; format: cell-based; conditions: unidentified adenovirus
[4] = Cytotoxicity concurrent with EBV primary assay; conditions: human, Akata cells without virus induction
[5] = Cytotoxicity concurrent with Adenovirus primary assay; format: cell-based; conditions: human
[6] = tested on: Epstein-Barr virus Akata strain; experiment: Epstein-Barr primary assay, Akata strain, Akata cells; format: cell-based
[7] = Cytotoxicity concurrent with VZV Ellen primary assay; format: cell-based; conditions: human
Protocol: as §1

HSV2 strain G = experiment: HSV2 primary assay, strain G, HFF cells; format: cell-based, herpes simplex virus 2
Protocol: as §1, §2

[8] = Cytotoxicity concurrent with HSV2 primary assay; format: cell-based; conditions: human
Protocol: as §1

HSV1 strain E-377 = experiment: HSV1 primary assay, strain E-377, HFF cells; format: cell-based, Herpes Simplex Virus 1
Protocol: as §1, §2

[9] = Metabolic stability in mice liver microsomes; conditions: mice liver microsomes, 1 μM compound, 1 mM NADPH, 60 min
Protocol: Potassium phosphate buffer (Kphos) was prepared by adding 0.647 g potassium phosphate monobasic (KH2PO4) and 3.527 g potassium phosphate dibasic (K2HPO4) to 400 mL of Milli-Q water. pH of the buffer was adjusted to 7.4 and volume was made up to 500 mL.
Stock solutions of the test compounds were prepared in DMSO at a concentration of 1 mM.
To this microsomal mix 1.42 μL (1 mM) of test compound and positive control were spiked, from this mix 70 μL was transferred to 96 well plate and pre-incubated at 37° C. for 5 min. […] The plates were centrifuged at 4000 RPM for 15 min and 100 μL aliquots were submitted for analysis by LC-MS/MS.
Samples were monitored for parent compound disappearance in MRM mode using LC-MS/MS. The LC-MS/MS conditions and MRM chromatogram will be provided as per client request.
The peak area ratios of analyte versus internal standard were used to calculate the % remaining at the end of 60 minutes in presence NADPH.

[10] = Human betaherpesvirus 5, HCMV primary assay, virus strain AD169, HFF cells, read-out: EC50
[11] = Human betaherpesvirus 5, HCMV primary assay, virus strain AD169, HFF cells, read-out: EC90
[12] = Human alphaherpesvirus 3, VZV primary assay, strain Ellen, cell line HFF, read-out: EC50
[13] = Human alphaherpesvirus 3, VZV primary assay, strain Ellen, cell line HFF, read-out: EC90
[14] = Adenovirus primary assay, HFF cells, Adenoid75 strain, read-out: EC50
[15] = Adenovirus primary assay, HFF cells, Adenoid75 strain, read-out: EC90
[16] = human gammaherpesvirus 4, Epstein-Barr primary assay, Akata strain, Akata cells, read-out: EC50
[17] = human gammaherpesvirus 4, Epstein-Barr primary assay, Akata strain, Akata cells, read-out: EC90
[18] = Human alphaherpesvirus 2, HSV2 primary assay, strain G, HFF cells, read-out: EC50
[19] = Human alphaherpesvirus 2, HSV2 primary assay, strain G, HFF cells, read-out: EC90
[20] = Human alphaherpesvirus 1, HSV1 primary assay, strain E-377, HFF cells, read-out: EC50
[21] = Human alphaherpesvirus 1, HSV1 primary assay, strain E-377, HFF cells, read-out: EC90
[22] = Human betaherpesvirus 5, AD169, HFF
[23] = human gammaherpesvirus 4, Akata

EC50 (HCMV strain AD169; [10]) [µM] | EC90 (HCMV strain AD169; [11]) [µM] | SMILES | CC50 ([1]; CC50) [µM] | CC50 [2] [µM] | CC50 at 72 h [4] [µM] | CC50 [5] [µM] | CC50 [7] [µM] | CC50 [8] [µM] | EC50 (HSV1 strain E-377; [20]) [µM] | EC90 (HSV1 strain E-377; [21]) [µM] | other results
2 | 2 | CC(C)(C)OC(=O)NCC1CCC(Nc2cc3c4ccc(F)cc4nn3cn2)CC1 (stereo not drawn) [VKT-001] | 6.19 | – | – | – | – | – | – | – | –
– | – | CN(C)C1CCC(Nc2cc3c4ccc(F)cc4nn3cn2)CC1 (stereo not drawn) [VKT-007] | – | 16.1 | – | – | – | – | 10 | 10 | % Remaining at 60 min [9]: 54%
0.4 | 0.4 | CN(c1cc2c3ccc(F)cc3nn2cn1)C1CCC(CNC(=O)OC(C)(C)C)CC1 (stereo not drawn) [VKT-009-A] | 0.57 | – | – | – | – | – | – | – | –
0.08 | 0.08 | CN(CC1CCC(N(C)c2cc3c4ccc(F)cc4nn3cn2)CC1)C(=O)OC(C)(C)C (stereo not drawn) [VKT-009-B] | 0.17 | – | – | – | – | – | – | – | –
10 | 10 | CC1CC(Nc2cc3c4ccc(F)cc4nn3cn2)CCO1 (stereo not drawn) [VKT-011] | 38.6 | – | – | – | – | – | – | – | –
10 | 10 | CC1CC(Nc2cc3c4ccc(F)cc4nn3cn2)CC(C)O1 (stereo not drawn) [VKT-013] | 48.1 | – | – | – | – | – | – | – | –
10 | 10 | Fc1ccc2c(c1)nn1cnc(NC3COCCOC3)cc21 [VKT-016] | 48.5 | – | – | – | – | – | – | – | –
– | – | CN1CCC(Nc2cc3c4ccc(F)cc4nn3cn2)CC1 [VKT-023] | 46 | 50 | 50 | 50 | 44.7 | 50 | – | – | EC50 (VZV strain Ellen; Human alphaherpesvirus 3, HFF): 10 µM; EC90 (VZV strain Ellen; Human alphaherpesvirus 3, HFF): 10 µM; EC50 ([3]; HFF): 50 µM; EC90 ([3]; HFF): 50 µM; EC50 (HCMV strain AD169; [22]): 10 µM; EC90 (HCMV strain AD169; [22]): 10 µM; EC50 [6, 23]: 29.5 µM; EC90 [6, 23]: 50 µM; EC50 (HSV2 strain G; Human alphaherpesvirus 2, HFF): 50 µM; EC90 (HSV2 strain G; Human alphaherpesvirus 2, HFF): 50 µM; EC50 (HSV1 strain E-377; Human alphaherpesvirus 1, HFF): 50 µM; EC90 (HSV1 strain E-377; Human alphaherpesvirus 1, HFF): 50 µM
10 | 10 | CCN1CCC(Nc2cc3c4ccc(F)cc4nn3cn2)CC1 [VKT-025] | 48.1 | – | – | – | – | – | – | – | –
10 | 10 | CN(C)CC(=O)N1CCC(Nc2cc3c4ccc(F)cc4nn3cn2)CC1 [VKT-028] | 32 | – | – | – | – | – | – | – | –
50 | 50 | CNC(=O)CN1CCC(Nc2cc3c4ccc(F)cc4nn3cn2)CC1 [VKT-031] | 50 | – | – | – | – | – | – | – | –
– | – | OCCC1CCC(Nc2cc3c4ccc(F)cc4nn3cn2)CC1 (stereo not drawn) [VKT-032] | – | – | – | – | – | – | – | – | EC50 (HCMV strain AD169; [22]): 10 µM; EC90 (HCMV strain AD169; [22]): 10 µM; CC50 ([1]; HCMV primary assay, HFF cells, read-out: CC50): 26.2 µM
– | – | N[C@@H]1CC[C@H](Nc2cc3c4ccc(F)cc4nn3cn2)C1 [VKT-034] | – | 18.7 | – | – | – | – | 10 | 10 | % Remaining at 60 min [9]: 81%
– | – | N[C@H]1CC[C@H](Nc2cc3c4ccc(F)cc4nn3cn2)C1 [VKT-036] | – | 29.4 | – | – | – | – | 10 | 10 | % Remaining at 60 min [9]: 82%
10 | 10 | Fc1ccc2c(c1)nn1cnc(NC3CCNCC3)cc21 [VKT-319, 7-fluoro-N-(piperidin-4-yl)pyrimido[1,6-b]indazol-3-amine] | 37.5 | – | – | – | – | – | – | – | –

SMILES | EC50 (HCMV strain AD169; [10]) [µM] | EC90 (HCMV strain AD169; [11]) [µM] | CC50 ([1]; CC50) [µM] | CC50 [2] [µM] | CC50 at 72 h [4] [µM] | CC50 [5] [µM] | CC50 [7] [µM] | CC50 [8] [µM] | EC50 (HSV1 strain E-377; [20]) [µM] | EC90 (HSV1 strain E-377; [21]) [µM] | other results
NCC1CCC(Nc2cc3c4ccc(F)cc4nn3cn2)CC1 (stereo not drawn) [VKT-002] | 2 | 2 | 7.42 | 20.8 | 6.69 | 21.2 | 7.9 | 24.4 | 10 | 10 | EC50 (VZV strain Ellen; [12]): 2 µM; EC90 (VZV strain Ellen; [13]): 2 µM; EC50 [3, 14]: 4.44 µM; EC90 [3, 15]: 10 µM; EC50 [6, 16]: 1.78 µM; EC90 [6, 17]: 2 µM; EC50 (HSV2 strain G; [18]): 10 µM; EC90 (HSV2 strain G; [19]): 10 µM
CN(C(=O)OC(C)(C)C)C1CCC(Nc2cc3c4ccc(F)cc4nn3cn2)CC1 (stereo not drawn) [VKT-005] | 0.4 | 0.4 | 1.48 | 16 | 39.4 | 3.81 | 1.48 | 7.94 | 10 | 10 | EC50 (VZV strain Ellen; [12]): 0.4 µM; EC90 (VZV strain Ellen; [13]): 0.4 µM; EC50 [3, 14]: 2 µM; EC90 [3, 15]: 2 µM; EC50 [6, 16]: 10 µM; EC90 [6, 17]: 10 µM; EC50 (HSV2 strain G; [18]): 2 µM; EC90 (HSV2 strain G; [19]): 2 µM
CNC1CCC(Nc2cc3c4ccc(F)cc4nn3cn2)CC1 (stereo not drawn) [VKT-006] | 10 | 10 | 32.5 | 38.5 | 33.5 | 30.5 | 27.2 | 42.8 | 10 | 10 | EC50 (VZV strain Ellen; [12]): 10 µM; EC90 (VZV strain Ellen; [13]): 10 µM; EC50 [3, 14]: 10 µM; EC90 [3, 15]: 10 µM; EC50 [6, 16]: 8.32 µM; EC90 [6, 17]: 10 µM; EC50 (HSV2 strain G; [18]): 10 µM; EC90 (HSV2 strain G; [19]): 10 µM
CN(C)CC1CCC(Nc2cc3c4ccc(F)cc4nn3cn2)CC1 (stereo not drawn) [VKT-008] | 10 | 10 | 38.8 | 50 | 50 | 48.6 | 37.2 | 50 | 50 | 50 | EC50 (VZV strain Ellen; [12]): 10 µM; EC90 (VZV strain Ellen; [13]): 10 µM; EC50 [3, 14]: 10 µM; EC90 [3, 15]: 10 µM; EC50 [6, 16]: 8.16 µM; EC90 [6, 17]: 44 µM; EC50 (HSV2 strain G; [18]): 50 µM; EC90 (HSV2 strain G; [19]): 50 µM
Fc1ccc2c(c1)nn1cnc(NC3CCSCC3)cc21 [VKT-017] | 10 | 10 | 21.4 | 50 | 50 | 46.7 | 37.1 | 50 | 50 | 50 | EC50 (VZV strain Ellen; [12]): 10 µM; EC90 (VZV strain Ellen; [13]): 10 µM; EC50 [3, 14]: 10 µM; EC90 [3, 15]: 10 µM; EC50 [6, 16]: 23.4 µM; EC90 [6, 17]: 41.5 µM; EC50 (HSV2 strain G; [18]): 50 µM; EC90 (HSV2 strain G; [19]): 50 µM
CC(C)(C)OC(=O)N[C@H]1CCC(Nc2cc3c4ccc(F)cc4nn3cn2)C1 (stereo partly drawn) [VKT-035] | 2 | 2 | 8.14 | 15.9 | 31.9 | 17.5 | 7.6 | 17.7 | 10 | 10 | EC50 (VZV strain Ellen; [12]): 2 µM; EC90 (VZV strain Ellen; [13]): 2 µM; EC50 [3, 14]: 10 µM; EC90 [3, 15]: 10 µM; EC50 [6, 16]: 10 µM; EC90 [6, 17]: 10 µM; EC50 (HSV2 strain G; [18]): 10 µM; EC90 (HSV2 strain G; [19]): 10 µM
